Laboratory results reported in patent USRE36374E, “1,2,3-triazole and tetrazole substituted piperidine or tetrahydropyridine compounds useful as acetylcholine agonists” (priority 1987, dated 1999).
Where a name gives a salt, the structure may show the parent alone.

Experiments:
[1] = tested on: AcCh receptors; conditions: background; cited from earlier work
[2] = peripheral administration; background; cited from earlier work
[3] = background; cited from earlier work
[4] = peripheral administration; background; cited from earlier work; remark: listed apart in the source
[5] = target: T1, central muscarinic M-1-receptors (Rattus norvegicus, UniProt P08482); assay: 3H-pirenzepine (Pz) displacement from rat brain homogenates; format: binding; conditions: displacement of 1.0 nM 3H-pirenzepine, rat brain homogenates, 60 min, 25° C; read-out: Pz, IC50
T1 sequence (P08482 1-460): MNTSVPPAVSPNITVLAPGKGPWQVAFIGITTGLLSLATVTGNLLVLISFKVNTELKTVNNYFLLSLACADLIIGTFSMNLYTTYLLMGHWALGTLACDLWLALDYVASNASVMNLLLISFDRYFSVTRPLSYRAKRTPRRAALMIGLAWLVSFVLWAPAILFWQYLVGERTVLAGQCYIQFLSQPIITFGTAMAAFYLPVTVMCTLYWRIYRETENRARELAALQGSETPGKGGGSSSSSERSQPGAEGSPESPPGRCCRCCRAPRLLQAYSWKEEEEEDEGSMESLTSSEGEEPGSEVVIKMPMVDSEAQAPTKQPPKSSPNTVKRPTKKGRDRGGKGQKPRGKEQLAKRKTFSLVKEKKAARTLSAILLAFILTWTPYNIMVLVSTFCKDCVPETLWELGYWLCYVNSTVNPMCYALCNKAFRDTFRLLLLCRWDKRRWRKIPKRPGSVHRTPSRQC
Experimental: (§1) Affinity to central cholinergic receptors in vitro was measured as the ability of the compounds to displace ^3 H-oxotremorine-M (Oxo-M) from rat brain homogenates, while affinity to central muscarinic M-1-receptors in vitro was measured as the ability of the compounds to displace ^3 H-pirenzepin (Pz) from rat brain homogenates.
was performed essentially as described by Watson et al., 1983, the conditions being very much the same as for ^3 H-oxotremorine binding, except that aliquots were incubated with 1.0 nM ^3 H-pirenzepine for 60 min. at 25° C. and that the reaction was stopped by direct filtration followed by 3 washes with 4 ml buffer.
Watson, M., Yamamura, H. I., and Roeske, W. R. (1983). "A unique regulatory profile and regional distribution of ^3 H-pirenzepin binding in the rat provide evidence for distinct M1 and M2 muscarinic receptor subtypes". Life Sci. 32 (1983) 3001-3011.

[6] = target: central cholinergic receptors; assay: 3H-oxotremorine-M (Oxo-M) displacement from rat brain homogenates; format: binding; conditions: displacement of 3H-oxotremorine-M, pH 7.4, 40 min, 30° C
Experimental: as §1
^3 H-oxotremorine M binding
was performed essentially as described by Birdsdall et al., 1980. Briefly, rat brains were homogenized in 100 vol (w/v) 10 mM Na,K-phosphate buffer (pH 7.4) and aliquots incubated with ^3 H-oxotremorine M (84.9 Ci/m-mol, NEN) alone or in the presence of test compound in a total volume of 1.5 ml for 40 min. at 30° C. The reaction was stopped by adding 5 ml cold buffer and filtered through Whatman GF/B filters soaked previously in 0.1% polyethylenimin (Sigma) for minimum 30 min. The filters were washed once with the same volume of buffer, transferred to scintillation vials and extracted in scintillation fluid (Pico-fluor 15, Packard) for at least two hours before counted in a liquid scintillation spectrometer (Beckman LS 1800). Non-specific binding was estimated at 10 μM atropine and all estimations made in triplicate. At least two displacement curves were made for each compound tested.
Birdsdall N. J. M., Hulme E. C., and Burgen A. S. V. (1980). "The Character of Muscarinic Receptors in Different Regions of the Rat Brain". Proc. Roy. […] London (Series B) 207, 1.

IC50 [5] [nM] | IC50 [6] [nM] | SMILES | AcCh agonist activity [1] | penetration of blood-brain barrier [2] | hydrolysis of ester group in vivo [3] | central effects [4]
– | – | COC(=O)C1=CCCN(C)C1 [Arecoline, methyl 1-methyl-1,2,5,6-tetrahydropyridine-3-carboxylate] | AcCh agonist | capable of penetrating the BBB | very rapidly hydrolyzed in vivo | very weak and frequently negligible central effects
420 | 180 | Cc1cnc(C2=CCCN(C)C2)s1 [Compound 90, 5-Methyl-2-(1-methyl-1,2,5,6-tetrahydro-3-pyridyl)-thiazole, hemifumarate] | – | – | – | –
1000 | 360 | Cc1cnc(C2=CCCNC2)s1 [Compound 91, 5-Methyl-2-(1,2,5,6-tetrahydro-3-pyridyl)-thiazole, fumarate] | – | – | – | –
130 | 18 | CSc1cnc(C2=CCCN(C)C2)s1 [Compound 93, 5-Methylthio-2-(1-methyl-1,2,5,6-tetrahydro-3-pyridyl)-thiazole, fumarate] | – | – | – | –
180 | 350 | Cc1cc(C2=CCCN(C)C2)nn1C [Compound 95, 1,5-Dimethyl-3-(1-methyl-1,2,5,6-tetrahydro-3-pyridyl)-pyrazole, dihydrochloride] | – | – | – | –
